Test results reported in US11897851B2, “Heterocyclic GLP-1 agonists” (Gasherbrum Bio, Inc., priority 2021, dated 2024).

The compounds below were run against T1, GLP-1 Receptor (Homo sapiens, UniProt P43220) (assay: GLP-1R agonist cAMP stimulation assay (HEK293/GLP1R/CRE-LUC cells, Cisbio cAMP dynamic 2 kit)). Settings: HEK293/CRE-Luc cell line stably expressing the GLP-1 Receptor; 1000 cells/well; 30 min at 37° C.; 0.5 mM IBMX, 0.1% BSA; read-out: GLP1R cAMP Stimulation DR: EC50.
T1 construct: host or cells: HEK293/GLP1R/CRE-LUC (HEK293/CRE-Luc stably expressing the GLP-1 receptor)
Format: cell-based
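Note: compounds tested in half-log serial dilution, cAMP detected with cAMP-d2 and anti-cAMP cryptate antibody reagents after 1 h at room temperature.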

T1 sequence (P43220 24-463, species assumed): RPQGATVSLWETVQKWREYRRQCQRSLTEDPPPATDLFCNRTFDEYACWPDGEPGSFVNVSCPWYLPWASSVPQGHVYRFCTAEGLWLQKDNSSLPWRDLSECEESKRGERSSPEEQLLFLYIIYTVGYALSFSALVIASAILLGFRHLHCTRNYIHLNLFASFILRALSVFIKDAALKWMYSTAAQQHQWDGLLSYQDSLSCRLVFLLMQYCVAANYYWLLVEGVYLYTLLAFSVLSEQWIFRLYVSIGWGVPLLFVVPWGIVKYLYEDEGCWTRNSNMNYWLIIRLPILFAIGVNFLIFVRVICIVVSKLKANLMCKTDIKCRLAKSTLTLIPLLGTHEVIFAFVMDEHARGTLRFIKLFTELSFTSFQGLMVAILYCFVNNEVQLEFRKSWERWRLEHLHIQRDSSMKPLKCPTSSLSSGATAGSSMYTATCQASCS

Row | EC50 [nM] | SMILES
1 | 0.058 | CN(CCn1c(/C=C/C(=O)O)cnc1CN1CCC(c2cccc3c2OC(C)(c2ccc(Cl)cc2F)O3)CC1)S(C)(=O)=O (stereo not shown) [Compound 176, (E)-3-(2-((4-(2-(4-chloro-2-fluorophenyl)-2-methylbenzo[d][1,3]dioxol-4-yl)piperidin-1-yl)methyl)-1-(2-(N-methylmethylsulfonamido)ethyl)-1H-imidazol-5-yl)acrylic acid]
2 | 20 | CCC(O)Cn1c(/C=C/C(=O)O)cnc1CN1CCC(c2cccc3c2OC(C)(c2ccc(Cl)cc2F)O3)CC1 (stereo not shown) [Compound 185, (E)-3-(2-((4-(2-(4-chloro-2-fluorophenyl)-2-methylbenzo[d][1,3]dioxol-4-yl)piperidin-1-yl)methyl)-1-(2-hydroxybutyl)-1H-imidazol-5-yl)acrylic acid]
3 | 0.47 | COCCn1c(/C=C/C(=O)O)nnc1CN1CCC(c2cccc(OCc3ccc(Cl)cc3F)n2)CC1 [Compound 223, (E)-3-(5-((4-(6-((4-chloro-2-fluorobenzyl)oxy)pyridin-2-yl)piperidin-1-yl)methyl)-4-(2-methoxyethyl)-4H-1,2,4-triazol-3-yl)acrylic acid]
4 | 10 | Cc1cc(-c2n[nH]c(=O)o2)cnc1CN1CCC(c2cccc3c2OC(C)(c2ccc(Cl)cc2F)O3)CC1 (stereo not shown) [Compound 254, 5-[6-({4-[2-(4-chloro-2-fluorophenyl)-2-methyl-2H-1,3-benzodioxol-4-yl]piperidin-1-yl}methyl)-5-methylpyridin-3-yl]-2,3-dihydro-1,3,4-oxadiazol-2-one]
5 | > 1000 | CC(Nc1ccc(CN2CCC(c3cccc(OCc4ccc(Cl)cc4F)n3)CC2)nc1)C(=O)O (stereo not shown) [Compound 130, 2-((6-((4-(6-((4-chloro-2-fluorobenzyl)oxy)pyridin-2-yl)piperidin-1-yl)methyl)pyridin-3-yl)amino)propanoic acid]
6 | 34.9 | COCCn1c(C2CC2C(=O)O)cnc1CN1CCC(c2cccc(OCc3ccc(Cl)cc3F)n2)CC1 (stereo not shown) [Compound 113]
7 | 0.33 | CC1(c2ccc(Cl)cc2F)Oc2cccc(C3CCN(Cc4ncc(/C=C/C(=O)O)n4CCC4CC4)CC3)c2O1 (stereo not shown) [Compound 191, (E)-3-(2-((4-(2-(4-chloro-2-fluorophenyl)-2-methylbenzo[d][1,3]dioxol-4-yl)piperidin-1-yl)methyl)-1-(2-cyclopropylethyl)-1H-imidazol-5-yl)acrylic acid]
8 | 5.5 | C/C(=C\c1cnc(CN2CCC(c3cccc(OCc4ccc(Cl)cc4F)n3)CC2)n1C)C(=O)O [Compound 110, (E)-3-(2-((4-(6-((4-chloro-2-fluorobenzyl)oxy)pyridin-2-yl)piperidin-1-yl)methyl)-1-methyl-1H-imidazol-5-yl)-2-methylacrylic acid]
9 | 0.0032 | CCn1cncc1Cn1c(/C=C/C(=O)O)cnc1CN1CCC(c2cccc(OCc3ccc(Cl)cc3F)n2)CC1 [Compound 214, (E)-3-(2-((4-(6-((4-chloro-2-fluorobenzyl)oxy)pyridin-2-yl)piperidin-1-yl)methyl)-1-((1-ethyl-1H-imidazol-5-yl)methyl)-1H-imidazol-5-yl)acrylic acid]
10 | 0.099 | C/C(=C\c1cnc(CN2CCC(c3cccc4c3O[C@@](C)(c3ccc(Cl)cc3F)O4)CC2)n1C[C@@H]1CCO1)C(=O)O (single isomer, unassigned) [Compound 131a]
11 | 0.63 | CC1(c2ccc(Cl)cc2F)Oc2cccc(C3CCN(Cc4ncc(CCC(=O)O)n4Cc4ccccc4)CC3)c2O1 (stereo not shown) [Compound 242, 3-(1-benzyl-2-((4-(2-(4-chloro-2-fluorophenyl)-2-methylbenzo[d][1,3]dioxol-4-yl)piperidin-1-yl)methyl)-1H-imidazol-5-yl)propanoic acid]
12 | 9.4 | O=C(O)C1CC1c1cnc(CN2CCC(c3cccc(OCc4ccc(Cl)cc4F)n3)CC2)n1C[C@@H]1CCO1 (stereo partly drawn) [Compound 114a, 2-(2-((4-(6-((4-chloro-2-fluorobenzyl)oxy)pyridin-2-yl)piperidin-1-yl)methyl)-1-(((S)-oxetan-2-yl)methyl)-1H-imidazol-5-yl)cyclopropane-1-carboxylic acid]
13 | > 1000 | O=C(O)CCc1ccc(CN2CCC(c3cccc(OCc4ccc(Cl)cc4F)n3)CC2)nc1 [Compound 118, 3-(6-((4-(6-((4-chloro-2-fluorobenzyl)oxy)pyridin-2-yl)piperidin-1-yl)methyl)pyridin-3-yl)propanoic acid]
14 | 0.012 | COCCn1c(/C=C/C(=O)O)cnc1CN1CCC(c2cccc3c2OC(C)(c2ccc(Cl)cc2F)O3)CC1 (stereo not shown) [Compound 141, (E)-3-(2-((4-(2-(4-chloro-2-fluorophenyl)-2-methylbenzo[d][1,3]dioxol-4-yl)piperidin-1-yl)methyl)-1-(2-methoxyethyl)-1H-imidazol-5-yl)acrylic acid]
15 | 0.011 | CCn1cncc1Cn1c(/C=C(\C)C(=O)O)cnc1CN1CCC(c2cccc3c2OC[C@@H](c2ccc(Cl)cc2)O3)CC1 [Compound 208a, (R,E)-3-(2-((4-(2-(4-chlorophenyl)-2,3-dihydrobenzo [b][1,4]dioxin-5-yl)piperidin-1-yl)methyl)-1-((1-ethyl-1H-imidazol-5-yl)methyl)-1H-imidazol-5-yl)-2-methylacrylic acid]
16 | 2.01 | Cn1c(/C=C/C(=O)O)nnc1CN1CCC(c2cccc(OCc3ccc(Cl)cc3F)n2)CC1 [Compound 112, (E)-3-(5-((4-(6-((4-chloro-2-fluorobenzyl)oxy)pyridin-2-yl)piperidin-1-yl)methyl)-4-methyl-4H-1,2,4-triazol-3-yl)acrylic acid]
17 | 0.33 | Cn1c(/C=C/C(=O)O)cnc1CN1CCC(c2cccc3c2OC(C)(c2ccc(Cl)cc2F)O3)CC1 (stereo not shown) [Compound 164, (E)-3-(2-((4-(2-(4-chloro-2-fluorophenyl)-2-methylbenzo[d][1,3]dioxol-4-yl)piperidin-1-yl)methyl)-1-methyl-1H-imidazol-5-yl)acrylic acid]
18 | 4.2 | O=C(O)/C=C/c1cnc(CN2CCC(c3cccc(OCc4ccc(Cl)cc4F)n3)CC2)n1CC1CCCO1 (stereo not shown) [Compound 213, (E)-3-(2-((4-(6-((4-chloro-2-fluorobenzyl)oxy)pyridin-2-yl)piperidin-1-yl)methyl)-1-((tetrahydrofuran-2-yl)methyl)-1H-imidazol-5-yl)acrylic acid]
19 | 26 | O=C(O)/C=C/c1nnc(CN2CCC(c3cccc(OCc4ccc(Cl)cc4F)n3)CC2)n1CC1CCOCC1 [Compound 233, (E)-3-[5-[[4-[6-[(4-chloro-2-fluoro-phenyl)methoxy]-2-pyridyl]-1-piperidyl]methyl]-4-(tetrahydropyran-4-ylmethyl)-1,2,4-triazol-3-yl]prop-2-enoic acid]
20 | 0.073 | CC1(c2ccc(Cl)cc2F)Oc2cccc(C3CCN(Cc4ncc(/C=C/C(=O)O)n4CC4(C#N)CC4)CC3)c2O1 (stereo not shown) [Compound 192, (E)-3-(2-((4-(2-(4-chloro-2-fluorophenyl)-2-methylbenzo[d][1,3]dioxol-4-yl)piperidin-1-yl)methyl)-1-((1-cyanocyclopropyl)methyl)-1H-imidazol-5-yl)acrylic acid]
21 | > 1000 | CC(Oc1ccc(CN2CCC(c3cccc(OCc4ccc(Cl)cc4F)n3)CC2)nc1)C(=O)O (stereo not shown) [Compound 125, 2-((6-((4-(6-((4-chloro-2-fluorobenzyl)oxy)pyridin-2-yl)piperidin-1-yl)methyl)pyridin-3-yl)oxy)propanoic acid]
22 | 0.019 | CCOCCn1c(/C=C/C(=O)O)cnc1CN1CCC(c2cccc3c2OC(C)(c2ccc(Cl)cc2F)O3)CC1 (stereo not shown) [Compound 197, (E)-3-(2-((4-(2-(4-chloro-2-fluorophenyl)-2-methylbenzo[d][1,3]dioxol-4-yl)piperidin-1-yl)methyl)-1-(2-ethoxyethyl)-1H-imidazol-5-yl)acrylic acid]
23 | 0.047 | CC(=O)N(C)CCn1c(/C=C/C(=O)O)cnc1CN1CCC(c2cccc3c2OC(C)(c2ccc(Cl)cc2F)O3)CC1 (stereo not shown) [Compound 175, (E)-3-(2-((4-(2-(4-chloro-2-fluorophenyl)-2-methylbenzo[d][1,3]dioxol-4-yl)piperidin-1-yl)methyl)-1-(2-(N-methylacetamido)ethyl)-1H-imidazol-5-yl)acrylic acid]
24 | 0.22 | CC1(c2ccc(Cl)cc2F)Oc2cccc(C3CCN(Cc4ncc(/C=C/C(=O)O)n4CCN4CCOC4=O)CC3)c2O1 (stereo not shown) [Compound 200, (E)-3-(2-((4-(2-(4-chloro-2-fluorophenyl)-2-methylbenzo[d][1,3]dioxol-4-yl)piperidin-1-yl)methyl)-1-(2-(2-oxooxazolidin-3-yl)ethyl)-1H-imidazol-5-yl)acrylic acid]
25 | 8.7 | C/C(=C\c1cnc(CN2CCC(c3cccc4c3O[C@](C)(c3ccc(Cl)cc3F)O4)CC2)n1C[C@@H]1CCO1)C(=O)O (single isomer, unassigned) [Compound 131b]
26 | 0.11 | CC1(c2ccc(Cl)cc2F)Oc2cccc(C3CCN(Cc4nnc(/C=C/C(=O)O)n4C[C@@H]4CCO4)CC3)c2O1 (stereo partly drawn) [Compound 136a, (E)-3-(5-((4-(2-(4-chloro-2-fluorophenyl)-2-methylbenzo[d][1,3]dioxol-4-yl)piperidin-1-yl)methyl)-4-(((S)-oxetan-2-yl)methyl)-4H-1,2,4-triazol-3-yl)acrylic acid]

Row | SMILES | EC50 [nM]
27 | O=C(O)/C=C/c1cnc(CN2CCC(c3cccc4c3OC[C@@H](c3ccc(Cl)cc3)O4)CC2)n1Cc1cnco1 [Compound 205a, (R,E)-3-(2-((4-(2-(4-chlorophenyl)-2,3-dihydrobenzo[b][1,4]dioxin-5-yl)piperidin-1-yl)methyl)-1-(oxazol-5-ylmethyl)-1H-imidazol-5-yl)acrylic acid] | 0.26
28 | CCc1ncsc1Cn1c(/C=C/C(=O)O)cnc1CN1CCC(c2cccc3c2OC(C)(c2ccc(Cl)cc2F)O3)CC1 (stereo not shown) [Compound 188, (E)-3-(2-((4-(2-(4-chloro-2-fluorophenyl)-2-methylbenzo[d][1,3]dioxol-4-yl)piperidin-1-yl)methyl)-1-((4-ethylthiazol-5-yl)methyl)-1H-imidazol-5-yl)acrylic acid] | 0.22
